The subject of series [1] is Blood. To be noted: mouse, in vivo, iv, 2 min.
Description: Biodistribution in ICR mouse blood at 1.1 MBq, iv after 2 mins postinjection
For series [2], the system named is Blood. The note with it: mouse, in vivo, iv, 0.5 h.
Description: Biodistribution in ICR mouse blood at 1.1 MBq, iv after 30 mins postinjection
Series [3] deals with Blood. The note with it: mouse, in vivo, iv, 1 h.
Description: Biodistribution in ICR mouse blood at 1.1 MBq, iv after 60 mins postinjection
The test system of series [4] is Cortex. To be noted: mouse, in vivo, iv, 2 min.
Description: Biodistribution in ICR mouse cortex at 1.1 MBq, iv after 2 mins postinjection
The test system of series [5] is Cortex. To be noted: mouse, in vivo, iv, 0.5 h.
Description: Biodistribution in ICR mouse cortex at 1.1 MBq, iv after 30 mins postinjection
Series [6] has as its system Cortex. The note with it: mouse, in vivo, iv, 1 h.
Description: Biodistribution in ICR mouse cortex at 1.1 MBq, iv after 60 mins postinjection
Series [7] deals with Cerebellum. The note with it: mouse, in vivo, iv, 2 min.
Description: Biodistribution in ICR mouse cerebellum at 1.1 MBq, iv after 2 mins postinjection
Series [8] concerns Cerebellum. The note with it: mouse, in vivo, iv, 0.5 h.
Description: Biodistribution in ICR mouse cerebellum at 1.1 MBq, iv after 30 mins postinjection
Series [9] deals with Cerebellum. To be noted: mouse, in vivo, iv, 1 h.
Description: Biodistribution in ICR mouse cerebellum at 1.1 MBq, iv after 60 mins postinjection
The subject of series [10] is Brain. To be noted: mouse, in vivo, iv, 2 min.
Description: Biodistribution in remaining brain of ICR mouse at 1.1 MBq, iv after 2 mins postinjection
Series [11] concerns Brain. To be noted: mouse, in vivo, iv, 0.5 h.
Description: Biodistribution in remaining brain of ICR mouse at 1.1 MBq, iv after 30 mins postinjection
The test system of series [12] is Brain. The note with it: mouse, in vivo, iv, 1 h.
Description: Biodistribution in remaining brain of ICR mouse at 1.1 MBq, iv after 60 mins postinjection
The nature of the next series: in vitro. The note with it: human, serum.
Series [13] is filed under the species Mus musculus. The series can be described thus: Binding affinity to beta-amyloid plaque in APPswe/PS1deltaE9 double transgenic mouse brain after 3 mins by Thioflavin-S fluorescence-based confocal microscopy. The series is classed as tissue-based.
The species entered for series [14] is Mus musculus. The experiment in a line: Binding affinity to beta-amyloid plaque in wild type mouse brain after 3 mins by Thioflavin-S fluorescence-based confocal microscopy. The series is classed as tissue-based.
Another series is described as follows: physchem. The note with it: octanol/PBS.
Series [15] deals with T1, Amyloid-beta precursor protein (Homo sapiens, UniProt P05067). The series can be described thus: biochemical.
Description: Displacement of [125I]TZDM from amyloid beta (1 to 42) aggregates in Alzheimer's disease-human brain homogenate after 3 hrs by gamma counting
Series [16] deals with T1, Amyloid-beta precursor protein. The experiment in a line: biochemical. This is another data set of the same source.
Description: Displacement of [3H]PIB from amyloid beta (1 to 42) aggregates in Alzheimer's disease-human brain homogenate after 3 hrs by gamma counting

From ChEMBL document CHEMBL1773063, “Aromatic radiofluorination and biological evaluation of 2-aryl-6-[18F]fluorobenzothiazoles as a potential positron emission tomography imaging probe for β-amyloid plaques” (Bioorg Med Chem, 2011) come the findings set out here.

Activity calls are given as the source filed them. The rule behind the calls is not given here.

T1 sequence (P05067 whole entry): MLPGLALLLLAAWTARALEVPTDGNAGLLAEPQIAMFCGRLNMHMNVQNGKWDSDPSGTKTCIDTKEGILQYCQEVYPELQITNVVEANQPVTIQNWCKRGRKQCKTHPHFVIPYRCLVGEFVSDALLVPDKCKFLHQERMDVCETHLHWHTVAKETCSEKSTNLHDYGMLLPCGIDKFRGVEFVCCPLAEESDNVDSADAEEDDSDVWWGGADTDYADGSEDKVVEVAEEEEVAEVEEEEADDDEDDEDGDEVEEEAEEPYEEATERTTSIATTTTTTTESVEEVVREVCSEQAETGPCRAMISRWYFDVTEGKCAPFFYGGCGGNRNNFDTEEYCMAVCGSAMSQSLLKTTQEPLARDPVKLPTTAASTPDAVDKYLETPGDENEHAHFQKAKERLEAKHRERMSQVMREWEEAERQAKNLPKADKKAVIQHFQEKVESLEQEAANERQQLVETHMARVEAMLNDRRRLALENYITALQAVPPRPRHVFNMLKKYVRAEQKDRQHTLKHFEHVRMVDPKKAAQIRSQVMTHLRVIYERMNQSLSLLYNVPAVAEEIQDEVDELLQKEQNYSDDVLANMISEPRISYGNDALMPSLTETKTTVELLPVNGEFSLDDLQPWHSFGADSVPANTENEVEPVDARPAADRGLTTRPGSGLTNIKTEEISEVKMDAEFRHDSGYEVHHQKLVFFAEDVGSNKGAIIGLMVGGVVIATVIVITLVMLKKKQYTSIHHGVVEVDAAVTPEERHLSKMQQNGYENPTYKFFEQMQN
Description for in vitro: Metabolic stability in human serum assessed as compound remaining at 3.7 MBq after 120 mins by radio-TLC
Description for physchem: Octanol-PBS partition coefficient, log P of the compound by gamma counter

A word on the amount remaining: it is what is left of the initial amount, in per cent. A high value points to less turnover. For the compound `CN(C)c1ccc(-c2nc3ccc([18F])cc3s2)cc1`, the Drug uptake with Blood [1] stood at 1.55 % ID/g; in the series on Blood [2] it was 1.04 % ID/g; in the series on Blood [3] it was 1.02 % ID/g; in the series on Cortex [4] it was 4.39 % ID/g; in the series with Cortex [5], 2.17 % ID/g; with Cortex [6], 1.61 % ID/g. Further, the Drug uptake with Cerebellum [7] came to 4.45 % ID/g; in the series on Cerebellum [8] it was 2.03 % ID/g; in the series on Cerebellum [9], 1.16 % ID/g; in the series on Brain [10] it was 4.26 % ID/g; in the series with Brain [11], 2.8 % ID/g; in the series with Brain [12], 2.01 % ID/g. In the series “in vitro”, the amount remaining at 2 h, 3.7 MBq was determined as 90%.

For the compound `CNc1ccc(-c2nc3ccc([18F])cc3s2)cc1`, the Drug uptake in the series on Blood [1] came out at 2.08 % ID/g; in the series with Blood [2], 1.13 % ID/g; with Blood [3] it was 1.11 % ID/g; in the series with Cortex [4], 6.62 % ID/g; in the series on Cortex [5] it was 1.2 % ID/g; in the series on Cortex [6] it was 0.73 % ID/g. Further, the Drug uptake with Cerebellum [7] came to 6.24 % ID/g; in the series on Cerebellum [8], 1.38 % ID/g; in the series with Cerebellum [9] it was 0.98 % ID/g; with Brain [10], 6.3 % ID/g; in the series with Brain [11] it was 1.91 % ID/g; in the series with Brain [12] it was 1.32 % ID/g. Further, the share remaining at 2 h, 3.7 MBq in “in vitro” was 90%.

As usually defined, the logP is the decadic logarithm of the partition coefficient of the neutral form, usually between octanol and water. Read a low logP as a more hydrophilic compound. As a reminder, the Ki is a dissociation constant, usually derived from enzyme kinetics or from competition with a known ligand. In the case of `CNc1ccc(-c2nc3ccc(F)cc3s2)cc1`, the outcome in the series listed under Mus musculus [13] and in the series listed under Mus musculus [14] was Active. This compound had a lipophilicity (logP) in the series “physchem” of 3.2. The Ki came out at 5.5 nM in series [15] and 0.2 nM in [16].

Regarding `CN(C)c1ccc(-c2nc3ccc(F)cc3s2)cc1`, the logP in the series “physchem” is 3.6. In addition, the inhibition constant (Ki) was found to be 5.9 nM in [15] and 0.3 nM in series [16].
